Assay results reported in patent publication US10300058B2, “Tyrosine kinase inhibitor and uses thereof” (Xuanzhu Pharma Co., Ltd., priority 2014, dated 2019).

Key:
[1] = target: EGFR (d746-750)-T790M (Homo sapiens (Human), UniProt P00533, DEL746-750/T790M); assay: Mobility Shift Assay, in vitro enzyme-inhibiting activity, EGFR (d746-750)-T790M; format: biochemical; conditions: Table 6
Experimental: (§1) 1. Preparation of Reagents
(§2) 2. Preparation of a Compound Solution
(§3) (1) To the second well of a 96-well plate, 5 μL 10 mM compound (dissolved in DMSO) was added, and 95 μL 100% DMSO was added to prepare 100 μL 0.5 mM compound.
(§4) (2) To other wells, 60 μL 100% DMSO was added. 20 μL compound from the second well was added to the third well, and 4-fold dilution was further performed to get 10 diluted concentrations.
(§5) (3) To the first well and the twelfth well of the 96-well plate, 100 μL 100% DMSO was separately added, and the two wells were used as control wells.
(§6) (4) 10 μL from each well of the 96-well plate was added to another 96-well plate, and 90 μL 1-fold kinase buffer was added.
(§7) (5) 5 μL from the 96-well plate was added to another 384-well plate, for example, transferred from A1 well of the 96-well plate to A1 and A2 wells of the 384-well plate, and transferred from A2 well of the 96-well plate to A3 and A4 wells of the 384-well plate, and so on.
(§8) To 384-well plate, 10 μL 2.5-fold enzyme solution was added, and incubated at room temperature for 10 min.
(§9) (5) Kinase reaction and stop
(§10) After incubation at 28° C. for a period of time (depending on kinase), 25 μL stop solution was added.
(§11) 4. Data on percent conversion was read by Caliper.
(§12) (1) Data on enzyme activity was obtained by Caliper program;
(§13) (2) Inhibition rate of enzyme activity was calculated from the data on enzyme activity by the following formula: Inhibition rate(%)=(maximal value−the measured value of a test compound)/(maximal value-minimal value)×100,
(§14) wherein, the maximal value represents the measured value of DMSO control; and the minimal value represents the measured value of blank control.
(§15) (3) Calculation of IC50 value by XLFit excel.

[2] = tested on: H1975 cell (EGFR-T790M/L858R double mutation); assay: In vitro cytologic activity, Celltiter-Glo, H1975 cells; format: cell-based, human; conditions: Table 10; for IC50: Homo sapiens, NCI-H1975, 72 h, 72 h, Celltiter-Glo, unit inferred; for Selectivity (A431/H1975): ratio of IC50
Experimental: (§16) 1.1 Preparation of Cell Suspension
(§17) Culture medium was removed from culture bottle;
(§18) PBS was added to wash the cells; • pancreatin was added for digestion, and the cells were collected by centrifugation; • the cells were resuspended in a culture medium containing 10% fetal bovine serum, counted and adjusted to a concentration of 2×10^4/mL or 3×10^4/mL (cell viability must be greater than 90%); • the cell suspension was added to a 96-well plate, at 100 μL for each well, i.e., 2000/well for H1975 cell; 3000/well for A431 cell; and • the cells were cultured at 37° C. in 5% CO2 incubator overnight.
(§19) Dilution of a compound in DMSO (or water for injection) • (1) The compound was 5-fold diluted with DMSO from 10 mM to 2 mM, and then 4-fold diluted from 2 mM, to get 10 concentrations; • High control (HC, control without compound inhibition): 0.5% DMSO; • Low control (LC, control with compound inhibition): 1000 nM.
(§20) i. To each well, 99 μL growth medium containing 10% FBS was added, and then 1 μL diluted compound was added, the total volume of the well was […], and the final concentration of the compound was measured.
(§21) The test plate was left at room temperature, and equilibrated for 30 min. 80 μL culture medium was discarded. 60 μL CTG reagent (Celltiter-Glo kit) was added, and shaked for 2 min in a fast shaker, and was placed at room temperature for 10 min. The values were read by Envision instrument.

[3] = tested on: A431 cell (wild-type EGFR gene); assay: In vitro cytologic activity, Celltiter-Glo, A431 cells; format: cell-based; conditions: Homo sapiens, A-431, 72 h, Table 10, unit inferred
Experimental: as §16, §17, §18, §19, §20, §21

[4] = target: EGFR L858R (Homo sapiens (Human), UniProt P00533, L858R); assay: Mobility Shift Assay, in vitro enzyme-inhibiting activity, EGFR L858R; format: biochemical; conditions: Table 6
Experimental: as §1, §2, §3, §4, §5, §6, §7, §8, §9, §10, §11, §12, §13, §14, §15

[5] = target: EGFR T790M-L858R (Homo sapiens (Human), UniProt P00533, L858R/T790M); assay: Mobility Shift Assay, in vitro enzyme-inhibiting activity, EGFR T790M-L858R; format: biochemical; conditions: Table 6
Experimental: as §1, §2, §3, §4, §5, §6, §7, §8, §9, §10, §11, §12, §13, §14, §15

[6] = target: EGFR T790M (Homo sapiens (Human), UniProt P00533, T790M); assay: Mobility Shift Assay, in vitro enzyme-inhibiting activity, EGFR T790M; format: biochemical; conditions: for IC50: Km ATP; for Selectivity (WT/T790M): ratio of IC50
Experimental: as §1, §2, §3, §4, §5, §6, §7, §8, §9, §10, §11, §12, §13, §14, §15

[7] = target: EGFR (d746-750) (Homo sapiens (Human), UniProt P00533, DEL746-750); assay: Mobility Shift Assay, in vitro enzyme-inhibiting activity, EGFR (d746-750); format: biochemical; conditions: Table 6
Experimental: as §1, §2, §3, §4, §5, §6, §7, §8, §9, §10, §11, §12, §13, §14, §15

[8] = target: wild-type EGFR (WT EGFR) (Homo sapiens (Human), UniProt P00533); assay: Mobility Shift Assay, in vitro enzyme-inhibiting activity, wild-type EGFR; format: biochemical; conditions: Km ATP
Experimental: as §1, §2, §3, §4, §5, §6, §7, §8, §9, §10, §11, §12, §13, §14, §15

Chain of EGFR T790M (P00533 25-1210 T790M): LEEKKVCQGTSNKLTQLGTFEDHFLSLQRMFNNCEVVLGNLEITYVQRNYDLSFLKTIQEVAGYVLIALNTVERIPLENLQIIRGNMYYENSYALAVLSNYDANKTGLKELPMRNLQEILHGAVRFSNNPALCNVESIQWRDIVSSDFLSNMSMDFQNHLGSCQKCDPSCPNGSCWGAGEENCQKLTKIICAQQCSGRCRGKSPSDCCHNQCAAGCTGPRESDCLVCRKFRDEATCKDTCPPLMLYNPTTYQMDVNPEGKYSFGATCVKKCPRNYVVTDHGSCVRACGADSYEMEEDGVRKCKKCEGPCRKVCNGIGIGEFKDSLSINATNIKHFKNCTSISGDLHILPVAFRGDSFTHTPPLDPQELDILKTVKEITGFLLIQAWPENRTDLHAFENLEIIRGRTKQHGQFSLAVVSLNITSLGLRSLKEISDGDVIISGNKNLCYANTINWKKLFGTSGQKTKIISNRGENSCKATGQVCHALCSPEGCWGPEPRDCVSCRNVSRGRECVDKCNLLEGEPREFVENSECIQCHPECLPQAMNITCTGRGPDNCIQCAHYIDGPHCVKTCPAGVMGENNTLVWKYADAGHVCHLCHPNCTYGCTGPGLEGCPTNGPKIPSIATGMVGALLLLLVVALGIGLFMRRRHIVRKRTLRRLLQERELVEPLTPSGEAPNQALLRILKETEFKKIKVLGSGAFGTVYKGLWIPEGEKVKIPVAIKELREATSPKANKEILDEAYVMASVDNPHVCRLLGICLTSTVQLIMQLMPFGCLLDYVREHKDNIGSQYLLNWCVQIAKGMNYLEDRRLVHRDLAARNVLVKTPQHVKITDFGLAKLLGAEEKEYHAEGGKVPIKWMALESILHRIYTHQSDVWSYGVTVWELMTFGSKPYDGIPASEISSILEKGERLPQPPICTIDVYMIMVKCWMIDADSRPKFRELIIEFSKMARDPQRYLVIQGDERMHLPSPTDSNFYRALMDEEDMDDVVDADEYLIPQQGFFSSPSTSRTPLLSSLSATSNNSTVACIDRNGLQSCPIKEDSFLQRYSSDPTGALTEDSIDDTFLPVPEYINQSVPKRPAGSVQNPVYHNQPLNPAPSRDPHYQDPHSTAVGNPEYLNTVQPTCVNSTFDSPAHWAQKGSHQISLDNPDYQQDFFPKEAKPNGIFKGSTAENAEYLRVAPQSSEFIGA
Chain of wild-type EGFR (WT EGFR) (P00533 25-1210): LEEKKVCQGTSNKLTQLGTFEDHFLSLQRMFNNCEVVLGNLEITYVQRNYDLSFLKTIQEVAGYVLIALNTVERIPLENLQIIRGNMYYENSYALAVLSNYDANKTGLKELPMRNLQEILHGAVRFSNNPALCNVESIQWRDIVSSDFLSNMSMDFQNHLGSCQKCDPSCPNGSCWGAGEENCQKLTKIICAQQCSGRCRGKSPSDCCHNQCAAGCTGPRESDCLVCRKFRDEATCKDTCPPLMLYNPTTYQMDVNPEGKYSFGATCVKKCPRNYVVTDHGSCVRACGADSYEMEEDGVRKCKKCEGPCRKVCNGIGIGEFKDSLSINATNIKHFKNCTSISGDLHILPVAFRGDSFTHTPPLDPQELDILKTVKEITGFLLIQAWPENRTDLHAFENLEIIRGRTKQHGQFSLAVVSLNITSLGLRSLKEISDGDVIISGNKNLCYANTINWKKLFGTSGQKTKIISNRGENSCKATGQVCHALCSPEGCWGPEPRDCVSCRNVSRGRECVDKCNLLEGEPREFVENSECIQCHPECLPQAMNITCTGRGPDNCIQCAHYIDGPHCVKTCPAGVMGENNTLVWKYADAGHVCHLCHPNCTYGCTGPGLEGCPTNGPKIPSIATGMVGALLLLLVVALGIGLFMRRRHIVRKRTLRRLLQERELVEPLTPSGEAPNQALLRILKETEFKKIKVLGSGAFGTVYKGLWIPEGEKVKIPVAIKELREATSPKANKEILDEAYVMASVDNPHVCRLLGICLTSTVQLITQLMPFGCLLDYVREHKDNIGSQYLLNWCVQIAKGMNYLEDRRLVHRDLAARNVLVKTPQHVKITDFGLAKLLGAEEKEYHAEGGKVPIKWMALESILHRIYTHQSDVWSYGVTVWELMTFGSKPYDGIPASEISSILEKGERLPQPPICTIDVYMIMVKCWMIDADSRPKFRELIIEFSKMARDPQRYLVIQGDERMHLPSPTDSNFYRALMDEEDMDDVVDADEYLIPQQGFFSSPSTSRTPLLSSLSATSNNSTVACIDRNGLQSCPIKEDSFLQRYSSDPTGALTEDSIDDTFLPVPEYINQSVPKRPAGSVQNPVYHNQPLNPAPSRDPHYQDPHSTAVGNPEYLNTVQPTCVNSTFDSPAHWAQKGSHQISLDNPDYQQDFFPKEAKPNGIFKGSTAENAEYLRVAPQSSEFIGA
Chain of EGFR L858R (P00533 25-1210 L858R): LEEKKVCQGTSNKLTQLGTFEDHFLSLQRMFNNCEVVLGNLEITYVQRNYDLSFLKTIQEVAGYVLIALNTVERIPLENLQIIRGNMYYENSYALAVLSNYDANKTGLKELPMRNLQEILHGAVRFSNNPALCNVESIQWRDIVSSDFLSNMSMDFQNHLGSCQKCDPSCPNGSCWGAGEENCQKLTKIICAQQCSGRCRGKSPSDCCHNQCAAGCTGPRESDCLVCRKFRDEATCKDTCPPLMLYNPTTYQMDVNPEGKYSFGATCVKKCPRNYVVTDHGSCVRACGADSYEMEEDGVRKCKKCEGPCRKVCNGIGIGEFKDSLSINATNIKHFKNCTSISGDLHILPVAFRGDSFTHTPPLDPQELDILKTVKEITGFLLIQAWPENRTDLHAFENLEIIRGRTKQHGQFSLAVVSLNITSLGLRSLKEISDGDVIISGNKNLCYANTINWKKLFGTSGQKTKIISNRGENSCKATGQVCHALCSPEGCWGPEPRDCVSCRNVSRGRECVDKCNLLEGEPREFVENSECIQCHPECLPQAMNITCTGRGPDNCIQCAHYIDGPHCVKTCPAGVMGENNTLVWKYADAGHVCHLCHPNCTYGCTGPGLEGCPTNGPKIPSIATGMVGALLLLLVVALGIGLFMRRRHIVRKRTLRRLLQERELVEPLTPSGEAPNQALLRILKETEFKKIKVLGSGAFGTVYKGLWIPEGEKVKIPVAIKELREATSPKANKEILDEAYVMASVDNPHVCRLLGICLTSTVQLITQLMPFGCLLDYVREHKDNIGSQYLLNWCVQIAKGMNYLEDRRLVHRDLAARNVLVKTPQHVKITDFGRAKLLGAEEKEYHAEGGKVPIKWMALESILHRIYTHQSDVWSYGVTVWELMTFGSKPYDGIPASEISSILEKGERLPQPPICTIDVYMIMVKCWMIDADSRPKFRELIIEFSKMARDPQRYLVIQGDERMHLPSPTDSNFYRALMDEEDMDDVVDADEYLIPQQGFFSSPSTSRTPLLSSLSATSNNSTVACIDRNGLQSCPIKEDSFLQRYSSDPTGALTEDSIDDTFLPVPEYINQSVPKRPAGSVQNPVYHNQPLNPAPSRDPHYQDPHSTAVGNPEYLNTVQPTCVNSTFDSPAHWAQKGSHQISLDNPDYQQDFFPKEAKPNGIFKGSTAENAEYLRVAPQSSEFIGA
Chain of EGFR (d746-750) (P00533 other isoform, or with tags, fused parts or gaps del 1-668/del 746-750 limits assumed): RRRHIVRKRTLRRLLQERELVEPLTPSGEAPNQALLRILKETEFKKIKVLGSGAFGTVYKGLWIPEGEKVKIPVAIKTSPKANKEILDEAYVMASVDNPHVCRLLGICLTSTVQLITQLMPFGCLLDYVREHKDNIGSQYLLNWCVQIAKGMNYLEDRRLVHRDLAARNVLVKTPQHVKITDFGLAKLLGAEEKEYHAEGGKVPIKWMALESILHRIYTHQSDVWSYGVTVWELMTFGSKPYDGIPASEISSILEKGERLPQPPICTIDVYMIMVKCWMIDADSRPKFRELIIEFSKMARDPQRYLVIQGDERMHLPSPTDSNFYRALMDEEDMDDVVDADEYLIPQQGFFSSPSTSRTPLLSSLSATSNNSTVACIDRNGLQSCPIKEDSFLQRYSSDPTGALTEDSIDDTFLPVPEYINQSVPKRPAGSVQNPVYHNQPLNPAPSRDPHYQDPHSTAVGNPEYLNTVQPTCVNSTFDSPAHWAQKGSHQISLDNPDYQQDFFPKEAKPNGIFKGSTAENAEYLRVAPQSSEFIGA
Chain of EGFR (d746-750)-T790M (P00533 other isoform, or with tags, fused parts or gaps T790M/del 1-668/del 746-750 limits assumed): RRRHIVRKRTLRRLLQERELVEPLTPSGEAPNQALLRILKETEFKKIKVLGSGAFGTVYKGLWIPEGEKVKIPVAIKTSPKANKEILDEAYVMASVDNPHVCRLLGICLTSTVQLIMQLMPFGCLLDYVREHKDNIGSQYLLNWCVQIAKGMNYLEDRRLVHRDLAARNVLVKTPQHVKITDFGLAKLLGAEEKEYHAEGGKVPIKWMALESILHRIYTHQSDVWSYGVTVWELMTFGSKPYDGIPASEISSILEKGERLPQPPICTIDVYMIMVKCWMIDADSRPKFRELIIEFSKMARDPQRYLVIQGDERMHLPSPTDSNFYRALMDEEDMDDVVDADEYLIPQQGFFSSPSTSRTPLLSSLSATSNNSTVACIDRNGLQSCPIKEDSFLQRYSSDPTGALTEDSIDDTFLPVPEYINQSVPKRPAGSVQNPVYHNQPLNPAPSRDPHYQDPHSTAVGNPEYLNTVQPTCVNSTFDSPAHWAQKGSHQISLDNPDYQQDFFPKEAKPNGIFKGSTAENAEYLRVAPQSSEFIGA

| SMILES | IC50 ([1]; Km ATP, read-out: IC50 EGFR (d746-750)-T790M) [nM] | Selectivity WT/(d746-750)-T790M ([1]; ratio of IC50) | IC50 [2] [nM] | Selectivity (A431/H1975) [2] | IC50 [3] [nM] | IC50 ([4]; Km ATP) [nM] | Selectivity WT/L858R ([4]; ratio of IC50) | IC50 ([5]; Km ATP) [nM] | Selectivity WT/T790M-L858R ([5]; ratio of IC50) | IC50 ([6]; Table 6) [nM] | Selectivity (WT/T790M) ([6]; Table 6) | IC50 ([7]; Km ATP) [nM] | Selectivity WT/d746-750 ([7]; ratio of IC50) | IC50 ([8]; Table 6) [nM] | IC50 ([6]; Table 4, unit inferred) [nM] | Selectivity (WT/T790M) ([6]; Table 4) | IC50 ([8]; Table 4, unit inferred) [nM] |
| --- | --- | --- | --- | --- | --- | --- | --- | --- | --- | --- | --- | --- | --- | --- | --- | --- | --- |
| C=CC(=O)Nc1cccc(Nc2nc(Nc3ccc(C4CCN(C)C(=O)C4)cc3OC)ncc2C(F)(F)F)c1 (centres unmarked) [Compound 21, N-(3-((2-((2-methoxy-4-(1-methyl-2-oxopiperidin-4-yl)phenyl)amino)-5-(trifluoromethyl)pyrimidin-4-yl)amino)phenyl)acrylamide] | 3.5 | 67.4 | 211 | 11.9 | 2500 | 35 | 6.7 | 3.3 | 71.5 | 3.5 | 67.4 | 28 | 8.4 | 236 |  |  |  |
| C=CC(=O)Nc1cccc(Nc2nc(Nc3ccc(C4CCN(C5COC5)CC4)cc3OC)ncc2C(F)(F)F)c1 [Compound 41, N-(3-((2-((2-methoxy-4-(1-(oxetan-3-yl)piperidin-4-yl)phenyl)amino)-5-(trifluoromethyl)pyrimidin-4-yl)amino)phenyl)acrylamide] |  |  | 28.5 | 8.6 | 247 |  |  |  |  |  |  |  |  |  | 1.4 | 58.6 | 82 |
| C=CC(=O)Nc1cccc(Nc2nc(Nc3ccc(OCCCS(C)(=O)=O)cc3OC)ncc2C(F)(F)F)c1 [Compound 43, N-(3-((2-((2-methoxy-4-(3-(methylsulfonyl)propoxy)phenyl)amino)-5-(trifluoromethyl)pyrimidin-4-yl)amino)phenyl)acrylamide] |  |  | 430 | 6.1 | 2640 |  |  |  |  |  |  |  |  |  | 3.6 | 44.2 | 159 |
